The experiment relates to human umbilical vein endothelial cells (HUVECs). Kind of experiment: Capillary tubule formation assay. The experiment is classed as cell-based. The source says:
We have developed a novel process that combines electrospinning, sintering, and salt leaching to create tunable capsules for long-term controlled release of a compound. The capsules enable high levels of therapeutic loading with preserved bioactivity due to the hollow core that is loaded post-processing without the typical loss seen during encapsulation procedures. The polymers in the device are biocompatible, biodegradable, and used for applications in drug delivery. Chitosan, a positively charged biopolymer was selected for the inner layer of the capsule to electrostatically interact with negatively charged proteins, peptides, and antibodies (e.g. anti-VEGF, αCT11) to slow release. Poly(caprolactone) (PCL) was selected for the outer layer of the device due to its hydrophobicity that slows hydrolytic degradation. Capsule inner diameters ranged from 0.26-1.7 mm, with average wall thickness of 90 μm. Scanning electron microscopy (SEM) was used to measure capsule dimensions and pore size (FIG. 5A). No pores were present after sintering when prepared without salts. Pore size increased from 237±97 nm to 609±274 nm for 1% to 10% salt concentrations, and elution was increased at >5% salt concentration due to pore interconnectivity. In preliminary studies, in vitro release of model protein BSA and anti-VEGF (bevacizumab) were evaluated. […]

With “bevacizumab: anti-VEGF (149 kDa), released from capsules”, the tubule formation result (VEGF 5 ng/ml, 10 μg/ml bevacizumab released from capsules at time points out to 9 months) is “tubule formation was inhibited”. Moreover, under “anti-VEGF released after 9 months, 5 ng VEGF”, the “tubule size versus fresh anti-VEGF control” value is listed as “no significant difference in tubule size”.

The values are drawn from patent US20260256702A1, “SUSTAINED ADJUNCT THERAPY TO IMPROVE CHEMOTHERAPY EFFICACY IN GLIOBLASTOMA IN A CEREBROVASCULA TUMOR-ON-A-CHIP MODEL” (Ohio State Innovation Foundation, priority 2022, published 2026).
